Data from US20210246115A1 (Bioimics AB, priority 2017, published 2021).
Where a name gives a salt, the structure may show the parent alone. Read-outs that look alike come from different tables or passages of the source.

Tests used:
[1] = system: Staphylococcus aureus subsp. aureus (ATCC29213); test: MIC, broth microdilution (CLSI), Staphylococcus aureus ATCC29213; type: cell-based; settings: Staphylococcus aureus
[2] = system: Staphylococcus aureus (ATCC25923); test: MIC, broth microdilution (CLSI), Staphylococcus aureus ATCC25923; settings: Staphylococcus aureus, ATCC25923, read-out: S. aureus ATCC 25923 MIC
[3] = system: Escherichia coli (ATCC25922); test: MIC, broth microdilution (CLSI), Escherichia coli; settings: Escherichia coli
H. influenzae ATCC 49247 = test: MIC, H. influenzae ATCC 49247; type: cell-based; settings: Haemophilus influenzae, ATCC49247; Table XIV B. Gram-negative bacteria
[4] = system: Pseudomonas aeruginosa (ATCC27853); test: MIC, broth microdilution (CLSI), Pseudomonas aeruginosa; type: cell-based; settings: ATCC27853, Table XIV B. Gram-negative bacteria, read-out: P. aeruginosa ATCC 27853 MIC
[5] = system: E. coli RNase P RNA, M1 RNA; test: Inhibition of bacterial RNase P activity, IC50 determination (cleavage of pATSerUG by M1 RNA); type: biochemical; settings: NI: No inhibition
[6] = system: S. aureus MRSA ATCC 33591; test: MIC, S. aureus MRSA ATCC 33591; type: cell-based; settings: Staphylococcus aureus; Table XIV A. Gram-positive bacteria; read-out: S. aureus MRSA ATCC 33591 MIC
K. pneumoniae ATCC 43816 = test: MIC, K. pneumoniae ATCC 43816; type: cell-based; settings: Klebsiella pneumoniae, ATCC43816; Table XIV B. Gram-negative bacteria
[7] = system: E. coli JW5503 (efflux defective); test: MIC, E. coli JW5503 (efflux defective); type: cell-based; settings: Escherichia coli, read-out: E. coli JW5503 (efflux defective) MIC
S. pneumoniae ATCC 49619 = test: MIC, S. pneumoniae ATCC 49619; type: cell-based; settings: Streptococcus pneumoniae, ATCC49619; Table XIV A. Gram-positive bacteria
[8] = system: N. gonorrhoeae ATCC 700825; test: MIC, N. gonorrhoeae ATCC 700825; type: cell-based; settings: Neisseria gonorrhoeae, ATCC700825; Table XIV B. Gram-negative bacteria
[9] = system: Enterococcus faecalis (ATCC29212); test: MIC, broth microdilution (CLSI), Enterococcus faecalis; type: cell-based; settings: ATCC29212, Table XIV A. Gram-positive bacteria, read-out: E. faecalis ATCC 29212 MIC
[10] = system: P. aeruginosa NTUH974 (MDR); test: MIC, P. aeruginosa NTUH974 (MDR); type: cell-based; settings: Pseudomonas aeruginosa; Table XIV B. Gram-negative bacteria; read-out: P. aeruginosa NTUH974 (MDR) MIC
A. baumannii ATCC 17978 = test: MIC, A. baumannii ATCC 17978; type: cell-based; settings: Acinetobacter baumannii, ATCC17978; Table XIV B. Gram-negative bacteria
E. faecium ATCC 700221 = test: MIC, E. faecium ATCC 700221; type: cell-based; settings: Enterococcus faecium, ATCC700221; Table XIV A. Gram-positive bacteria; read-out: E. faecium ATCC 700221 MIC
[11] = ATCC29213, Table XIII, read-out: S. aureus ATCC 29213 MIC
[12] = ATCC25922, read-out: E. coli ATCC 25922 MIC, Table XIII
[13] = ATCC29213, Table XIV A. Gram-positive bacteria, read-out: S. aureus ATCC 29213 MIC
[14] = ATCC25922, read-out: E. coli ATCC 25922 MIC, Table XIV B. Gram-negative bacteria
[15] = ATCC29213, read-out: S. aureus ATCC 29213 MIC, Table XIII

SMILES	MIC [1, 11]	MIC [2]	MIC [3, 12]	MIC (H. influenzae ATCC 49247)	MIC [4]	MIC [1, 13]	IC50 [5]	MIC [6]	MIC (K. pneumoniae ATCC 43816)	MIC [7]	MIC (S. pneumoniae ATCC 49619)	MIC [8]	MIC [9]	MIC [10]	MIC (A. baumannii ATCC 17978)	MIC (E. faecium ATCC 700221)	MIC [3, 14]	MIC [1, 15]
Cc1cccc(C(CC(=O)NCCC2CCNCC2)c2cn(CC3CCCCC3)c3ccc(Br)cc23)c1.Cl (stereo not drawn) [Compound 120, 3-(5-bromo-1-(cyclohexylmethyl)-1H-indol-3-yl)-N-(2-(piperidin-4-yl)ethyl)-3-(m-tolyl)propanamide hydrochloride salt]	–	2 µg/mL	> 512 µg/mL	16 µg/mL	64 µg/mL	2 µg/mL	11 µM	32 µg/mL	64 µg/mL	16 µg/mL	16 µg/mL	2 µg/mL	4 µg/mL	64 µg/mL	64 µg/mL	4 µg/mL	32 µg/mL	–
NC1CCC(NCCC(c2cccc(C(F)(F)F)c2)c2cn(CC3CCCCC3)c3ccccc23)CC1 [Compound 168, (1S,4S)-N1-(3-(1-(cyclohexylmethyl)-1H-indol-3-yl)-3-(3-(trifluoromethyl)phenyl)propyl)cyclohexane-1,4-diamine hydrochloride salt]	–	2 µg/mL	5 µg/mL	4 µg/mL	16 µg/mL	2 µg/mL	11 µM	4 µg/mL	4 µg/mL	4 µg/mL	8 µg/mL	2 µg/mL	2 µg/mL	16 µg/mL	4 µg/mL	2 µg/mL	4 µg/mL	–
NC1CCC(NCCC(c2cccc(Cl)c2)c2cn(CC3CCCCC3)c3ccccc23)CC1 [Compound 170, (1S,4S)-N1-(3-(3-chlorophenyl)-3-(1-(cyclohexylmethyl)-1H-indol-3-yl)propyl) cyclohexane-1,4-diamine hydrochloride salt]	–	2 µg/mL	4 µg/mL	4 µg/mL	16 µg/mL	2 µg/mL	16 µM	4 µg/mL	8 µg/mL	2 µg/mL	8 µg/mL	2 µg/mL	2 µg/mL	32 µg/mL	4 µg/mL	2 µg/mL	4 µg/mL	–
Cc1cccc(CC(CC(=O)N[C@H]2CC[C@H](N)CC2)c2cn(CC3CCCCC3)c3ccccc23)c1.Cl (stereo partly drawn) [Compound 202, N-((1R,4R)-4-aminocyclohexyl)-3-(1-(cyclohexylmethyl)-1H-indol-3-yl)-4-(m-tolyl)butanamide hydrochloride salt]	–	2 µg/mL	33 µg/mL	16 µg/mL	32 µg/mL	16 µg/mL	10.7 µM	8 µg/mL	64 µg/mL	16 µg/mL	16 µg/mL	4 µg/mL	8 µg/mL	32 µg/mL	32 µg/mL	4 µg/mL	128 µg/mL	–
Cc1cccc(C(CCNC2CCC(N)CC2)c2cn(CC34CC5CC(CC(C5)C3)C4)c3ccccc23)c1 [Compound 232, (1S,4S)-N1-(3-(1-(((1S,4S)-adamantan-1-yl)methyl)-1H-indol-3-yl)-3-(m-tolyl)propyl)cyclohexane-1,4-diamine hydrochloride salt]	–	2 µg/mL	5 µg/mL	8 µg/mL	32 µg/mL	4 µg/mL	8.3 µM	4 µg/mL	8 µg/mL	4 µg/mL	8 µg/mL	4 µg/mL	4 µg/mL	32 µg/mL	8 µg/mL	2 µg/mL	4 µg/mL	–
Cc1cccc(C(CCNC2CCCCC2)c2cn(CC3CCCCC3)c3ccccc23)c1.Cl (stereo not drawn) [Compound 215, N-(3-(1-(cyclohexylmethyl)-1H-indol-3-yl)-3-(m-tolyl)propyl) cyclohexanamine hydrochloride salt]	2 µg/mL	2 µg/mL	> 128 µg/mL	16 µg/mL	> 128 µg/mL	2 µg/mL	–	> 128 µg/mL	> 128 µg/mL	64 µg/mL	2 µg/mL	1 µg/mL	2 µg/mL	> 128 µg/mL	> 128 µg/mL	1 µg/mL	> 128 µg/mL	–
Cc1cccc(C(CCNCC2CNCCO2)c2cn(CC3CCCCC3)c3ccccc23)c1 (stereo not drawn) [Compound 288, 3-(1-(cyclohexylmethyl)-1H-indol-3-yl)-N-(morpholin-2-ylmethyl)-3-(m-tolyl)propan-1-amine hydrochloride salt]	–	4 µg/mL	4 µg/mL	–	–	–	52 µM	–	–	–	–	–	–	–	–	–	–	128 µg/mL
Cc1cccc(C(CCNC2CCNCC2)c2cn(CC3CCOCC3)c3ccc(Br)cc23)c1 (stereo not drawn) [Compound 293, N-(3-(5-bromo-1-((tetrahydro-2H-pyran-4-yl)methyl)-1H-indol-3-yl)-3-(m-tolyl)propyl) piperidin-4-amine hydrochloride salt]	–	5 µg/mL	4 µg/mL	–	–	–	70 µM	–	–	–	–	–	–	–	–	–	–	8 µg/mL

The next lines start with results.

MIC [1, 11]	SMILES	MIC [2]	MIC [3, 12]	MIC (H. influenzae ATCC 49247)	MIC [4]	MIC [1, 13]	IC50 [5]	MIC [6]	MIC (K. pneumoniae ATCC 43816)	MIC [7]	MIC (S. pneumoniae ATCC 49619)	MIC [8]	MIC [9]	MIC [10]	MIC (A. baumannii ATCC 17978)	MIC (E. faecium ATCC 700221)	MIC [3, 14]	MIC [1, 15]
6 µg/mL	Cl.c1ccc(-c2ccc(CNCCc3c[nH]c4ccccc34)cc2)cc1 [Compound 24, N-([1,1′-biphenyl]-4-ylmethyl)-2-(1H-indol-3-yl)ethan-1-amine hydrochloride salt]	6 µg/mL	46 µg/mL	–	–	–	–	–	–	–	–	–	–	–	–	–	–	–
> 128 µg/mL	Cl.O=C(CCC1C(=O)N(CC2CCCCC2)c2ccccc21)NC1CCNCC1 (stereo not drawn) [Compound 275, 3-(1-(cyclohexylmethyl)-2-oxoindolin-3-yl)-N-(piperidin-4-yl) propanamide hydrochloride salt]	> 512 µg/mL	> 128 µg/mL	–	–	–	79 µM	–	–	–	–	–	–	–	–	–	–	–
64 µg/mL	Cc1cccc(C(CCNCC2CNCCO2)c2cn(CC3CCCCC3)c3ccc(Br)cc23)c1.Cl (stereo not drawn) [Compound 289, 3-(5-bromo-1-(cyclohexylmethyl)-1H-indol-3-yl)-N-(morpholin-2-ylmethyl)-3-(m-tolyl)propan-1-amine hydrochloride salt]	2 µg/mL	16 µg/mL	–	–	–	15 µM	–	–	–	–	–	–	–	–	–	–	–
2 µg/mL	NC1CCC(NCCC(c2ccc(F)c(F)c2)c2cn(CC3CCCCC3)c3ccccc23)CC1 [Compound 161, (1S,4S)-N1-(3-(1-(cyclohexylmethyl)-1H-indol-3-yl)-3-(3,4-difluorophenyl)propyl) cyclohexane-1,4-diamine hydrochloride salt]	2 µg/mL	2 µg/mL	–	–	–	12 µM	–	–	–	–	–	–	–	–	–	–	–
8 µg/mL	Cc1cccc(C(CCN[C@H]2CC[C@H](N)CC2)c2cn(CC3CCCC3)c3ccccc23)c1 (stereo partly drawn) [Compound 164, (1R,4R)-N1-(3-(1-(cyclopentylmethyl)-1H-indol-3-yl)-3-(m-tolyl)propyl)cyclohexane-1,4-diamine hydrochloride salt]	4 µg/mL	8 µg/mL	–	–	–	9.6 µM	–	–	–	–	–	–	–	–	–	–	–
8 µg/mL	Cl.N[C@H]1CC[C@H](NC(=O)CC(c2cncc3ccccc23)c2cn(CC3CCCCC3)c3ccccc23)CC1 (stereo partly drawn) [Compound 191, N-((1R,4R)-4-aminocyclohexyl)-3-(1-(cyclohexylmethyl)-1H-indol-3-yl)-3-(isoquinolin-4-yl)propanamide hydrochloride salt]	5 µg/mL	8 µg/mL	–	–	–	7 µM	–	–	–	–	–	–	–	–	–	–	–
4 µg/mL	Cc1cccc(C(CC(=O)NC2CCNCC2)c2cn(CCC3CCCCC3)c3ccccc23)c1.Cl (stereo not drawn) [Compound 109, 3-(1-(2-cyclohexylethyl)-1H-indol-3-yl)-N-(piperidin-4-yl)-3-(m-tolyl)propanamide hydrochloride salt]	4 µg/mL	128 µg/mL	–	–	–	3.7 µM	–	–	–	–	–	–	–	–	–	–	–
32 µg/mL	Cc1cccc(C(CC(=O)NC2CCNCC2)c2cn(CC3CCCCC3)c3ccc(C(=O)O)cc23)c1.Cl (stereo not drawn) [Compound 297, 1-(cyclohexylmethyl)-3-(3-oxo-3-(piperidin-4-ylamino)-1-(m-tolyl)propyl)-1H-indole-5-carboxylic acid hydrochloride salt]	34 µg/mL	> 128 µg/mL	–	–	–	38 µM	–	–	–	–	–	–	–	–	–	–	–
